≈ marks a conversion by molar mass, not a printed value.
Columns and labels:
Escherichia coli [1] = test: Antibacterial activity against Escherichia coli ATCC 25922 measured after 12 to 18 hrs; format: functional
Staphylococcus aureus [2] = test: Antibacterial activity against Staphylococcus aureus ATCC 25923 measured after 12 to 18 hrs; format: functional
Staphylococcus aureus [3] = test: Antibacterial activity against methicillin-resistant Staphylococcus aureus ATCC 33591 measured after 12 to 18 hrs; format: functional
Staphylococcus aureus [4] = test: Antibacterial activity against methicillin-resistant Staphylococcus aureus ATCC 43300 measured after 12 to 18 hrs; format: functional
BEAS-2B = test: Cytotoxicity against human BEAS2B cells after 48 hrs by MTT assay; format: cell-based
A549 = test: Cytotoxicity against human A549 cells after 48 hrs by MTT assay; format: cell-based; details: A549, 48 h
[5] = Selectivity index, ratio of IC50 for human BEAS2B cells to IC50 for human A549 cells; details: BEAS2B cells versus A549 cells, read-out: Ratio IC50
CCD-841CoN = test: Cytotoxicity against human CCD-841-CoN cells after 48 hrs by MTT assay; format: cell-based
COLO 205 = test: Cytotoxicity against human COLO205 cells after 48 hrs by MTT assay; format: cell-based; details: COLO 205, 48 h
[6] = Selectivity index, ratio of IC50 for human CCD-841-CoN cells to IC50 for human COLO205 cells; details: CCD-841-CoN cells versus COLO205 cells, read-out: Ratio IC50
Escherichia coli [7] = test: Antibacterial activity against Escherichia coli ATCC 25922; format: functional
Staphylococcus aureus [8] = test: Antibacterial activity against Staphylococcus aureus ATCC 25923; format: functional

Row | SMILES | MIC (Escherichia coli [1]) | MIC (Staphylococcus aureus [2]) | MIC (Staphylococcus aureus [3]) | MIC (Staphylococcus aureus [4]) | IC50 (BEAS-2B) | IC50 (A549) | selectivity ratio [5] | IC50 (CCD-841CoN) | IC50 (COLO 205) | selectivity ratio [6] | MIC (Escherichia coli [7]) | MIC (Staphylococcus aureus [8])
1 | COc1ccc(-n2n[n+](C)c3c2C(=O)c2ccccc2C3=O)cc1.O=S(=O)([O-])C(F)(F)F | > 128 µg/mL | 1 to 2 µg/mL | 0.5 µg/mL | 2 µg/mL | 5.8 µg/mL | 0.78 µg/mL | 7.44 | 5.89 µg/mL | 0.7 µg/mL | 8.41 | – | –
2 | C[n+]1nn(-c2ccc(F)cc2)c2c1C(=O)c1ccccc1C2=O.O=S(=O)([O-])C(F)(F)F | > 128 µg/mL | 1 µg/mL | 0.5 µg/mL | 1 µg/mL | 14.2 µg/mL | 2.22 µg/mL | 6.44 | 8.16 µg/mL | 2.86 µg/mL | 2.85 | – | –
3 | CCCCCCCC[n+]1nn(-c2ccc([N+](=O)[O-])cc2)c2c1C(=O)c1ccccc1C2=O.O=S(=O)([O-])C(F)(F)F | – | 8 µg/mL | 16 µg/mL | 32 µg/mL | 21 µg/mL | 15.6 µg/mL | 4.76 | 31 µg/mL | 8.53 µg/mL | 3.63 | – | –
4 | CCCCCC[n+]1nn(-c2ccc([N+](=O)[O-])cc2)c2c1C(=O)c1ccccc1C2=O.O=S(=O)([O-])C(F)(F)F | – | 2 to 4 µg/mL | 1 µg/mL | 128 µg/mL | 38.6 µg/mL | 48.9 µg/mL | 0.79 | 40.2 µg/mL | 21.2 µg/mL | 1.89 | – | –
5 | CC[n+]1nn(-c2ccc([N+](=O)[O-])cc2)c2c1C(=O)c1ccccc1C2=O.O=S(=O)([O-])C(F)(F)F | – | 8 to 16 µg/mL | 1 to 2 µg/mL | 4 to 8 µg/mL | 43.6 µg/mL | 7.4 µg/mL | 5.89 | 51.3 µg/mL | 7.72 µg/mL | 6.64 | – | –
6 | COc1ccc(-n2n[n+](-c3ccc(OC)c(OC)c3)c3c2C(=O)c2ccccc2C3=O)cc1OC.O=S(=O)([O-])C(F)(F)F | > 128 µg/mL | 4 µg/mL | 2 µg/mL | 4 µg/mL | 3.76 µg/mL | 1.6 µg/mL | 2.35 | – | – | – | – | –
7 | CC[n+]1nn(-c2ccc(OC)cc2)c2c1C(=O)c1ccccc1C2=O.O=S(=O)([O-])C(F)(F)F | 128 µg/mL | 4 to 8 µg/mL | 2 µg/mL | 2 µg/mL | 5 µg/mL | 0.73 µg/mL | 6.85 | 7.85 µg/mL | 0.82 µg/mL | 9.57 | – | –
8 | CCCC[n+]1nn(-c2ccc([N+](=O)[O-])cc2)c2c1C(=O)c1ccccc1C2=O.O=S(=O)([O-])C(F)(F)F | – | 4 µg/mL | 2 µg/mL | 8 to 16 µg/mL | 49.8 µg/mL | 44.9 µg/mL | 1.11 | 42.8 µg/mL | 43.2 µg/mL | 0.99 | – | –
9 | C[n+]1nn(-c2ccc(C#N)cc2)c2c1C(=O)c1ccccc1C2=O.O=S(=O)([O-])C(F)(F)F | > 128 µg/mL | 2 µg/mL | 1 µg/mL | 2 µg/mL | 30.1 µg/mL | 5.2 µg/mL | – | 32.6 µg/mL | 5.91 µg/mL | 5.52 | – | –
10 | CCCCCCCCCC[n+]1nn(-c2ccc([N+](=O)[O-])cc2)c2c1C(=O)c1ccccc1C2=O.O=S(=O)([O-])C(F)(F)F | – | 2 to 4 µg/mL | 8 µg/mL | 8 to 16 µg/mL | 7.39 µg/mL | 7.02 µg/mL | 1.05 | 30.6 µg/mL | 7.29 µg/mL | 4.2 | – | –
11 | CC[n+]1nn(-c2ccc(Cl)cc2)c2c1C(=O)c1ccccc1C2=O.O=S(=O)([O-])C(F)(F)F | > 128 µg/mL | 2 to 4 µg/mL | 1 µg/mL | 2 µg/mL | 4.22 µg/mL | 0.85 µg/mL | 4.96 | 6.65 µg/mL | 0.78 µg/mL | 8.53 | – | –
12 | CCCCCCCCn1n[n+](CC)c2c1C(=O)c1ccccc1C2=O.O=S(=O)([O-])C(F)(F)F | – | – | – | – | – | – | – | – | – | – | > 128 µg/mL | 0.25 to 0.5 µg/mL
13 | C[n+]1nn(-c2ccc([N+](=O)[O-])cc2)c2c1C(=O)c1ccccc1C2=O.O=S(=O)([O-])C(F)(F)F | > 128 µg/mL | 2 µg/mL | 1 µg/mL | 2 µg/mL | 52.9 µg/mL | 3.5 µg/mL | 15.1 | 55.8 µg/mL | 4.64 µg/mL | 12 | – | –
14 | NC[C@@H]1O[C@H](O[C@H]2[C@@H](O)[C@H](O[C@@H]3[C@@H](O)[C@H](N)C[C@H](N)[C@H]3O[C@H]3O[C@H](CN)[C@@H](O)[C@H](O)[C@H]3N)O[C@@H]2CO)[C@H](N)[C@@H](O)[C@@H]1O [FRAMYCETIN] | 2 µg/mL (≈ 3.25 µM) | 2 to 4 µg/mL (≈ 3.25 to 6.51 µM) | 256 µg/mL (≈ 416 µM) | > 256 µg/mL | – | – | – | – | – | – | – | –
15 | CN[C@H](CC(C)C)C(=O)N[C@H]1C(=O)N[C@@H](CC(N)=O)C(=O)N[C@H]2C(=O)N[C@H]3C(=O)N[C@H](C(=O)N[C@H](C(=O)O)c4cc(O)cc(O)c4-c4cc3ccc4O)[C@H](O)c3ccc(c(Cl)c3)Oc3cc2cc(c3O[C@@H]2O[C@H](CO)[C@@H](O)[C@H](O)[C@H]2O[C@H]2C[C@](C)(N)[C@H](O)[C@H](C)O2)Oc2ccc(cc2Cl)[C@H]1O [VANCOMYCIN] | > 256 µg/mL | – | – | 32 µg/mL (≈ 22.1 µM) | – | – | – | – | – | – | – | –

From ChEMBL document CHEMBL4270614, “Tuning the biological activity of cationic anthraquinone analogues specifically toward Staphylococcus aureus” (Eur J Med Chem, 2018)
